From patent US6949575B2, “Method of inhibiting amyloid protein aggregation and imaging amyloid deposits using aminoindane derivatives” (Pfizer Inc., priority 2000, dated 2005)
Values joined by “and” are separate entries in the source; they are usually repeats but may differ in a detail not shown here. Equal entries are not always repeated.

Assays:
Format in all cases: biochemical
Aβ (1-42) = target: T1, Aβ (1-42) (Homo sapiens, UniProt P05067); assay: Batym Assay: Aβ (1-42) aggregation, Thioflavin T fluorescence; settings: Aβ1-42 final 100 μM, 37° C., 1 day, read-out: BAYTM IC50
T1 construct: Required Aβ (1-42) (California Peptide); purchased California Peptide
Protocol: Required Aβ (1-42) (California Peptide) was dried from its HFIP stock solution. The Aβ (1-42) was dissolved in DMSO and then mixed with phosphate buffered saline (PBS) (pH 7.4). The mixed Aβ (1-42) solution was filtered with a Omnipore membrane 0.2-μm syringe filter (Millipore, Bedford, Mass.). The compound to be tested in DMSO (50× concentrate) was put into each well (0.5 μL/well) of a 96-well plate. The Aβ (1-42) solution was added into each well (24.5 μL/well). The plate was centrifuged at 1,000 g for 5 minutes and incubated at 37° C. for 1 day (Aβ1-42; final concentration 100 μM).
After incubation, Thioflavin T (ThT) (30 μM) solution in glycine-NaOH buffer (pH 8.5, 50 mM) was added into each well (250 μL/well), fluorescence was measured (ex=440/20 nm; em=485/20 nm) using a fluorescence plate reader. The inhibitory activity was calculated as the reduction of fluorescence with the following formula: Inhibition (%)={(F(Aβ)−F(Aβ+compound)}/{F(Aβ)−[…]}×100
The IC50s were calculated by a curve fitting program using the following equation. The data were obtained from two different experiments in triplicate. Inhibition (x)=100−100/{1+(x/IC50)^n}. • x=concentration of tested compound (M). • IC50=(M). • n=Hill coefficient.

Aβ (1-40) peptide = target: T2, Aβ (1-40) peptide (Homo sapiens, UniProt P05067); assay: BAPA (Beta-Amyloid Peptide Aggregation, pH 6.0), filtration endpoint; settings: Aβ(1-40) 33 μM, pH 6.0, 2 to 4 hours, room temperature
T2 construct: Aβ (1-40) peptide in 20% HFIP
Protocol: • 1) Prepare the reaction mix above by mixing the components and storing on ice. • 2) Pipet 14.5 μL of reaction mixture into each of 50 wells of a polystyrene U-bottom 96-well microtiter plate (Coming 25881-96) on ice. • 3) Add 1.7 μL of diluted compound to be tested to each well in a column of eight, including solvent control. Serial 3-fold dilutions from 1 mM (100 μM final) in assay buffer-urea=7 dilutions+zero. Each 96-well plate can therefore accommodate 11 samples+1 Congo Red control (0.039-5 μM final in 2-fold steps). • 4) Seal the plate with aluminum film and incubate for 10 minutes on ice. • 5) Raise the temperature to 37° C. and incubate for 3 to 5 hours (depends on the lot of the peptide). • 6) Remove the aluminum film and add 250 μL/well of 5 μM thioflavin T (ThT) [T-3516, Sigma-Aldrich] in 50 mM glycine-NaOH, pH 8.5. Read fluorescence on a plate reader (ex=440 nm/20 nm; em=485 nm/20 nm) within 5 minutes. BAPA (Beta-Amyloid Peptide Aggregation) This assay is used to provide a measure of inhibition by a compound against the aggregation behavior of the β-amyloid peptide. The purpose of this assay is to provide a higher volume method of assaying the amount of β-amyloid aggregation using an endpoint assay based on filtration. In this assay, hexafluoroisopropanol (HFIP) is used to break down the initial amyloid peptide to a monomer state and use a concentration of 33 μM which is high enough so that aggregation will occur at pH 6.0 in several hours. Methods: Beta-Amyloid Peptide Aggregation, pH 6.0 (BAPA) In a 96-well plate (Costar 3794), we add 25 μL 50 mM phosphate buffer, pH 6.0, 10 μL 0.5 mg/mL Aβ (1-40) peptide in 20% HFIP+0.1 μL/assay radioiodinated ^125I Aβ (1-40) [^125I Aβ(1-40)], and 1 μL of the compound to be tested starting at 50 mM with a concentration of DMSO<1%. Then, we incubate for 2 to 4 hours at room temperature. We stop the reaction with 200 μL of 50 mM phosphate buffer, pH 6.0, and filter it through a 0.2 μm 96-well filter plate (Millipore MAGU […]). We wash the filter plate with 100 μL of the same phosphate buffer. Aggregation was detected on a Microbeta counter after impregnating the filters with Meltilex (1450-441) and is corrected for background.

Soluble Aβ(1-40) = target: T3, Soluble Aβ(1-40) (Homo sapiens, UniProt P05067); assay: BASST (Beta-Amyloid Self-Seeding, Thioflavin T): inhibitors of self-seeded amyloid fibril growth; settings: 30 μM soluble Aβ(1-40), 37° C., 3 to 5 hours, thioflavin T fluorescence
T3 construct: Soluble Aβ(1-40)—2.2 mg/mL in deionized H2O
Protocol: • 1) Prepare reaction mixture above by mixing components and storing on ice. • 2) Pipet 14.5 μL of reaction mixture into each of 50 wells on a polypropylene U-bottom 96-well microtiter plate on ice (Costar 3794). • 3) Add 1.7 μL of diluted compound to be tested to each well in a column of eight, including solvent control. Serial 3-fold dilutions from 1 mM (100 μM final) in assay buffer-urea=7 dilutions+zero. Each 96-well plate can therefore accommodate 11 samples+1 Congo Red control (0.039-5 μM final in 2-fold steps). • 4) Seal the plate with aluminum film (Beckman 538619) and incubate for 10 minutes on ice. • 5) Raise the temperature to 37° C. and incubate for 3 to 5 hours (depending on the lot of the peptide). • 6) Remove the aluminum film and add 200 μL/well of ice cold assay buffer with urea, collecting the radiolabeled fibrils by vacuum filtration through 0.2-μm pore size GVWP filters in 96-well plates (Millipore MAGV […], Bedford, Mass.). Determine the radioactivity of the filters using standard methods well-known to those skilled in the art. BASST (Beta-Amyloid Self-Seeding, Thioflavin T) An assay for inhibitors of self-seeded amyloid fibril growth Methods: Materials: Stock Solutions: Assay Buffer-50 mM sodium phosphate, pH 7.5, 100 mM NaCl, 0.02% NaN3, 1 M urea (filter and store at 4° C.) Soluble Aβ(1-40)-2.2 mg/mL in deionized H2O (store in aliquots at -20° C., keep on ice when thawed) will self-seed after 1 week storage. Typically, the solution should be stored until no lag phase is seen in the assay. Final assay conditions: 30 μM soluble Aβ(1-40) in deionized water in assay buffer. Compound to be tested is dissolved in DMSO, typically 5 to 50 mM stock, such that the final concentration of DMSO is <1% v/v in the assay. Assay: Reaction mixture for 50 assays (on ice) comprised of 1 μL of soluble Aβ(1-40)+13.5 μL assay buffer per assay. The following are the amounts of the components of the reaction mixture that result in each of the 50 assay wells. 50 μL soluble Aβ(1-40) 675 μL assay buffer Assay Method • 1) Prepare the reaction mix above by mixing the components and storing on ice. • 2) Pipet 14.5 μL of reaction mixture into each of 50 wells of a polystyrene U-bottom 96-well microtiter plate (Coming 25881-96) on ice. • 3) Add 1.7 μL of diluted compound to be tested to each well in a column of eight, including solvent control. Serial 3-fold dilutions from 1 mM (100 μM final) in assay buffer-urea=7 dilutions+zero. Each 96-well plate can therefore accommodate 11 samples+1 Congo Red control (0.039-5 μM final in 2-fold steps). • 4) Seal the plate with aluminum film and incubate for 10 minutes on ice. • 5) Raise the temperature to 37° C. and incubate for 3 to 5 hours (depends on the lot of the peptide). • 6) Remove the aluminum film and add 250 μL/well of 5 μM thioflavin T (ThT) [T-3516, Sigma-Aldrich] in 50 mM glycine-NaOH, pH 8.5. Read fluorescence on a plate reader (ex=440 nm/20 nm; em=485 nm/20 nm) within 5 minutes. BAPA (Beta-Amyloid Peptide Aggregation)

Soluble Aβ(1-40) peptide = target: T4, Soluble Aβ(1-40) peptide (Homo sapiens, UniProt P05067); assay: BASSR (Beta-Amyloid Self-Seeding Radioassay): inhibitors of self-seeded amyloid fibril growth; settings: 30 μM soluble Aβ(1-40) + 125I-labeled Aβ(1-40), 37° C., 3 to 5 hours, filtration; replicate values
T4 construct: Soluble Aβ(1-40) peptide; purchased Bachem, Torrance, Calif
Protocol: BASSR (Beta-Amyloid Self-Seeding Radioassay)
An assay for inhibitors of self-seeded amyloid fibril growth
Assay Buffer—[…] sodium phosphate, pH 7.5, 100 mM NaCl, 0.02% NaN3, 1 M urea (filter and store at 4° C.)
Soluble Aβ(1-40) peptide (Bachem, Torrance, Calif.)—2.2 mg/mL in deionized H2O (stored in aliquots at −20° C., keep on ice when thawed) will self-seed after 1 week storage. Typically, the solution should be stored until no lag phase is seen in the assay.
^125I-labeled Aβ(1-40)—150 to 350K cpm/μL in 100% acetonitrile—0.1% trifluoroacetic acid (TFA)—1% β-mercaptoethanol (aliquots stored at −20° C.). ^125I-labeled Aβ(1-40) can be made in accordance with the procedure set forth by H. Levine, III in Neurobiol. Aging, 16:755 (1995), which is hereby incorporated by reference, or this reagent may be purchased from Amersham, Arlington Heights, Ill. Final assay conditions: 30 μM soluble Aβ(1-40) in deionized water in assay buffer+20 to 50K cpm ^125I-labeled Aβ(1-40) per assay. Compound to be tested is dissolved in dimethylsulfoxide (DMSO), typically 5 to 50 mM stock, such that the final concentration of DMSO is <1% v/v in the assay. Assay: Reaction mixture for 50 assays (on ice) is comprised of 0.1 to 0.2 μL of ^125I-labeled A^125I-labeled Aβ(1-40)+1 μL of soluble Aβ(1-40)+13.5 μL assay buffer per assay. The following are the amounts of the components of the reaction mixture sufficient for 50 assay wells.
• 1) Prepare reaction mixture above by mixing components and storing on ice. • 2) Pipet 14.5 μL of reaction mixture into each of 50 wells on a polypropylene U-bottom 96-well microtiter plate on ice (Costar 3794). • 3) Add 1.7 μL of diluted compound to be tested to each well in a column of eight, including solvent control. Serial 3-fold dilutions from 1 mM (100 μM final) in assay buffer-urea=7 dilutions+zero. Each 96-well plate can therefore accommodate 11 samples+1 Congo Red control (0.039-5 μM final in 2-fold steps). • 4) Seal the plate with aluminum film (Beckman 538619) and incubate for 10 minutes on ice. • 5) Raise the temperature to 37° C. and incubate for 3 to 5 hours (depending on the lot of the peptide). • 6) Remove the aluminum film and add 200 μL/well of ice cold assay buffer with urea, collecting the radiolabeled fibrils by vacuum filtration through 0.2-μm pore size GVWP filters in 96-well plates (Millipore MAGV N22, Bedford, Mass.). Determine the radioactivity of the filters using standard methods well-known to those skilled in the art. BASST (Beta-Amyloid Self-Seeding, Thioflavin T)

T1 sequence (P05067 672-713 limits assumed): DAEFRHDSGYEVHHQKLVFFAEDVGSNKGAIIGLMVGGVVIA
T2 sequence (P05067 672-711 limits assumed): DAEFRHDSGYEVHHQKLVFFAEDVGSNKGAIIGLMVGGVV
T3 sequence (P05067 672-711 limits assumed): as above
T4 sequence (P05067 672-711 limits assumed): as above

Structure (SMILES) | IC50 (Aβ (1-42)) | IC50 (Aβ (1-40) peptide) | IC50 (Soluble Aβ(1-40)) | IC50 (Soluble Aβ(1-40) peptide)
O=C(O)c1cc([N+](=O)[O-])ccc1Nc1ccc2c(c1)CC(N(Cc1ccc(F)cc1)Cc1ccc(F)cc1)C2 (centres unmarked) [Example 11, 2-{2-[bis-(4-Fluorobenzyl)amino]indan-5-ylamino}-5-nitro-benzoic acid] | 7 µM and 12 µM | 7 µM | 1 µM | 
O=C(O)c1ccccc1Nc1ccc2c(c1)CC(NCc1ccc(Cl)c(Cl)c1)C2 (centres unmarked) [Example 3, 2-[2-(3,4-Dichlorobenzylamino)-indane-5-ylamino]-benzoic acid] | > 100 µM |  | 40 µM | > 100 µM
O=C(O)c1cc([N+](=O)[O-])ccc1Nc1ccc2c(c1)CC(NCc1ccc(Cl)c(Cl)c1)C2 (centres unmarked) [Example 4, 2-[2-(3,4-Dichlorobenzylamino)-indan-5-ylamine]-5-nitro-benzoic Acid] | 16 µM | 28 µM | 1.1 µM | 
O=C(O)c1cc([N+](=O)[O-])ccc1NC1Cc2ccc(Nc3ccc(Cl)c(Cl)c3)cc2C1 (centres unmarked) [Example 9, 2-[5-(3,4-Dichlorophenylamino)-indan-2-ylamino]-5-nitro-benzoic acid] |  | 5 µM | 0.25 µM | 
